According to patent EP1043319A1, “NOVEL ALKYLAMINO DERIVATIVES” (MITSUBISHI CHEMICAL CORPORATION, priority 1997, dated 1999):
Structures can show the parent of a compound that is named as a salt. Where two headings read alike, the source gives them in different places.

Assays:
Sigma 2 [1] = biological target: T1, Sigma 2 (Rattus norvegicus, UniProt Q5U3Y7); assay: biochemical
T1 sequence (Q5U3Y7 1-176): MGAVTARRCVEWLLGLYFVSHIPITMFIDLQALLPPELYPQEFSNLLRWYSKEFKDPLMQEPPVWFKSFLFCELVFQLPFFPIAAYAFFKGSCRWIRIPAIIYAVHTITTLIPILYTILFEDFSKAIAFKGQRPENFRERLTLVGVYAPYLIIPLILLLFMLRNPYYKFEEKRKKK
Description: (§1) Test Example: Sigma binding site-binding inhibition test
(§2) The reaction mixture was rapidly filtered on a Brandel cell harvester using Whatman GF/B filter paper, which was immersed beforehand in 0.5% polyethyleneimine for 1 hour, to stop the reaction. The filter paper was washed 4 times with the ice cooled incubation buffer.

Sigma 2 [2] = biological target: T1, Sigma 2; details: read-out: Sigma 2 Ki; [^3H]-DTG 1 nM, 500 nM pentazocine, crude P2 membrane fraction from rat livers, 50 mM Tris-HCl pH 7.4, 25°C, 2 hours
Description: as §1, §2

| Compound | Ki (Sigma 2 [1]) [µM] | Ki (Sigma 2 [2]) [µM] |
| --- | --- | --- |
| O=c1sc2ccc(Cl)cc2n1CC1CCN(CC(O)c2ccc(F)cc2)CC1 (racemic) [Example 40, (R,S)-1-(4-Fluorophenyl)-2-[4-(5-chloro-2-oxobenzothiazolin-3-ylmethyl)piperidin-1-yl]ethanol hydrochloride] | 0.0047 | – |
| CN=c1sc2cc(Cl)ccc2n1CCCCN(C)CC(O)c1ccc(F)cc1 (racemic) [Example 30, (R,S)-1-(4-Fluorophenyl)-2-[[N-[4-(6-chloro-2-methyliminobenzothiazolin-3-yl)butyl]-N-methyl]amino]ethanol dihydrochloride] | 0.025 | – |
| O=c1sc2cc([N+](=O)[O-])ccc2n1CC1CCN(CC(O)c2ccc(F)cc2)CC1 (stereo not drawn) [Example 36, 1-(4-Fluorophenyl)-2-[4-(6-nitro-2-oxobenzothiazolin-3-ylmethyl)piperidin-1-yl]ethanol hydrochloride] | 0.031 | – |
| CN=c1sc2cc(Cl)ccc2n1CC1CCN(CC(O)c2ccc(F)cc2)CC1 (racemic) [Example 5, (R,S)-1-(4-Fluorophenyl)-2-[4-(6-chloro-2-methyliminobenzothiazolin-3-yl-methyl)piperidin-1-yl]ethanol dihydrochloride] | 0.0072 | – |
| O=c1sc2cc(Br)ccc2n1CC1CCN(CC(O)c2ccc(F)cc2)CC1 (racemic) [Example 32, (R,S)-1-(4-Fluorophenyl)-2-[4-(6-bromo-2-oxobenzothiazolin-3-ylmethyl)-piperidin-1-yl]ethanol hydrochloride] | 0.004 | – |
| N=c1sc2cc(Cl)ccc2n1CC1CCN(CC(O)C23CC4CC(CC(C4)C2)C3)CC1 (racemic) [Example 1, (R,S)-1-(1-Adamantyl)-2-[4-(6-chloro-2-iminobenzothiazolin-3-ylmethyl)piperidin-1-yl] ethanol dihydrochloride] | 0.0087 | – |
| N=c1sc2cc(Cl)ccc2n1CC1CCN(CC(O)c2cccc(F)c2)CC1 (racemic) [Example 11, (R,S)-1-(3-Fluorophenyl)-2-[4-(6-chloro-2-iminobenzothiazolin-3-yl-methyl)piperidin-1-yl]ethanol dihydrochloride] | 0.036 | – |
| CN=c1sc2cc(Cl)ccc2n1CC1CCN(CC(=O)c2ccc(S(N)(=O)=O)cc2)CC1 [Example 21, 3-[[1-[2-(4-Aminosulfonylphenyl)-2-oxoethyl]-4-piperidinyl]methyl]-6-chloro-2-methyliminobenzothiazoline dihydrochloride] | 0.017 | – |
| CN=c1sc2cc(Cl)ccc2n1CC1CCN(C[C@H](O)c2ccc(F)cc2)CC1 [Example 27, (R)-1-(4-Fluorophenyl)-2-[4-(6-chloro-2-methyliminobenzothiazolin-3-yl-methyl)piperidin-1-yl]ethanol dihydrochloride] | 0.017 | – |
| CN=c1sc2cc(Cl)ccc2n1CC1CCN(C[C@@H](O)c2ccc(F)cc2)CC1 [Example 28, (S)-1-(4-Fluorophenyl)-2-[4-(6-chloro-2-methyliminobenzothiazolin-3-yl-methyl)piperidine-1-yl]ethanol dihydrochloride] | 0.019 | – |
| CN=c1sc2cc(Cl)ccc2n1CC1CCN(CC(=O)c2ccc(F)cc2)CC1 [Example 4, 3-[[1-[2-(-Fluorophenyl)-2-oxoethyl]-4-piperidinyl]methyl]-6-chloro-2-methyliminobenzothiazoline dihydrochloride] | 0.004 | – |
| CN=c1sc2cc(Cl)ccc2n1CC1CCN(CC(O)c2ccc(F)cc2F)CC1 (racemic) [Example 22, (R,S)-1-(2,4-Difluorophenyl)-2-[4-(6-chloro-2-methyliminobenzothiazolin-3-ylmethyl)piperidin-1-yl]ethanol dihydrochloride] | 0.0094 | – |
| N=c1sc2cc(Cl)ccc2n1CC1CCN(CC(O)c2ccc(F)c(F)c2)CC1 (racemic) [Example 6, (R,S)-1-(3,4-Difluorophenyl)-2-[4-(6-chloro-2-iminobenzothiazolin-3-yl-methyl)piperidin-1-yl]ethanol dihydrochloride] | 0.025 | – |

More lines, now with the values ahead:

| Ki (Sigma 2 [1]) [µM] | Ki (Sigma 2 [2]) [µM] | Compound |
| --- | --- | --- |
| 0.0045 | – | O=C(CN1CCC(Cn2c(=O)sc3cc(Cl)ccc32)CC1)c1ccc(F)cc1 [Example 33, 3-[[1-[2-(4-Fluorophenyl)-2-oxoethyl]-4-piperidinyl]methyl]-6-chloro-2-oxobenzothiazoline hydrochloride] |
| 0.021 | – | N=c1sc2cc(F)ccc2n1CC1CCN(CC(=O)c2ccc(F)cc2)CC1 [Example 19, 3-[[1-[2-(4-Fluorophenyl)-2-oxoethyl]-4-piperidinyl]methyl]-6-fluoro-2-iminobenzothiazoline dihydrochloride] |
| 0.007 | – | N=c1sc2cc(Cl)ccc2n1CC1CCN(CC(=O)c2ccc(F)cc2)CC1 [Example 2, 3-[[1-[2-(4-Fluorophenyl)-2-oxoethyl]-4-piperidinyl]methyl]-6-chloro-2-iminobenzothiazoline dihydrochloride] |
| 0.0031 | – | O=C(CN1CCC(Cn2c(=O)sc3ccc(Cl)cc32)CC1)c1ccc(F)cc1 [Example 39, 3-[[1-[2-(4-Fluorophenyl)-2-oxoethyl]-4-piperidinyl]methyl]-5-chloro-2-oxobenzothiazoline hydrochloride] |
| – | 0.035 | N=c1sc2cc(Cl)ccc2n1CC1CCN(C[C@H](O)c2ccc(F)cc2)CC1 (racemic) [Example 3, (R,S)-1-(4-Fluorophenyl)-2-[4-(6-chloro-2-iminobenzothiazolin-3-ylmethyl)-piperidin-1-yl]ethanol dihydrochloride] |
| 0.0093 | – | CC(=O)N=c1sc2cc(Cl)ccc2n1CC1CCN(CC(=O)c2ccc(F)cc2)CC1 [Example 9, 3-[[1-[2-(4-Fluorophenyl)-2-oxoethyl]-4-piperidinyl]methyl]-6-chloro-2-acetyliminobenzothiazoline hydrochloride] |
| 0.0073 | – | N=c1sc2cc(C(F)(F)F)ccc2n1CC1CCN(CC(=O)c2ccc(F)cc2)CC1 [Example 23, 3-[[1-[2-(4-Fluorophenyl)-2-oxoethyl]-4-piperidinyl]methyl]-2-imino-6-trifluoromethylbenzothiazoline dihydrochloride] |
| 0.028 | – | N=c1sc2ccccc2n1CC1CCN(CC(=O)c2ccc(F)cc2)CC1 [Example 15, 3-[[1-[2-(4-Fluorophenyl)-2-oxoethyl]-4-piperidinyl]methyl]-2-iminobenzothiazoline dihydrochloride] |
| 0.013 | – | O=C(CN1CCC(Cn2c(=O)sc3cc([N+](=O)[O-])ccc32)CC1)c1ccc(F)cc1 [Example 35, 3-[[1-[2-(4-Fluorophenyl)-2-oxoethyl]-4-piperidinyl]methyl]-6-nitro-2-oxobenzothiazoline hydrochloride] |
| 0.0063 | – | O=C(CN1CCC(Cn2c(=O)sc3cc(Br)ccc32)CC1)c1ccc(F)cc1 [Example 31, 3-[[1-[2-(4-Fluorophenyl)-2-oxoethyl]-4-piperidinyl]methyl]-6-bromo-2-oxobenzothiazoline hydrochloride] |
| 0.023 | – | Cc1ccc2c(c1)sc(=N)n2CC1CCN(CC(=O)c2ccc(F)cc2)CC1 [Example 18, 3-[[1-[2-(4-Fluorophenyl)-2-oxoethyl]-4-piperidinyl]methyl]-6-methyl-2-iminobenzothiazoline dihydrochloride] |
